The results in this text go back to paper PMC10353061 (ACS Pharmacology & Translational Science, 2023).

The target in the assay is T1, β-catenin Armadillo repeats domain (Homo sapiens, UniProt P35222).
T1 construct: GST (N, cleaved yes); made in house; host or cells: Escherichia coli BL21(DE3)
T1 sequence (P35222 133-664): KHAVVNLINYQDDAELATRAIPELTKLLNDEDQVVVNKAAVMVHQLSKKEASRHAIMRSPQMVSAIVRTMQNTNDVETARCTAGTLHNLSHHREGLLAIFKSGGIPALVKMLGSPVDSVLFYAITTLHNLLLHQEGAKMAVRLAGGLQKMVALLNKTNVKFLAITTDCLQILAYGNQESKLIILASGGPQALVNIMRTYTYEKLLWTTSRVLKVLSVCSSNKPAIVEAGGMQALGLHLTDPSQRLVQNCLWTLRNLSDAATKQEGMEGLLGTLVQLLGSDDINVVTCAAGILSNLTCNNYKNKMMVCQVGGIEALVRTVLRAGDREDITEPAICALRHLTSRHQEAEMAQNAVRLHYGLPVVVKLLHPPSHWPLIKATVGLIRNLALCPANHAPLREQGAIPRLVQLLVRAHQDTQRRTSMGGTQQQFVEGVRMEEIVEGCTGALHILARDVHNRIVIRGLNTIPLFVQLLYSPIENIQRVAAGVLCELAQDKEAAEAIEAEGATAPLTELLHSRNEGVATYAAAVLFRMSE
Put plainly: Surface plasmon resonance binding of 9 to immobilized β-catenin Armadillo repeats domain. The settings on record: SPR, 25 °C, analyte 1.95-62.5 nM, 1:1 model; read-out: ka. Here is the method:
To collect detailed kinetic data of the binding measured as the rate constants of the association (ka) and dissociation (kd) of the complex, a concentration series of the analyte ranging from 1.95 up to 62.5 nM was injected over the covalently immobilized Armadillo repeats domain onto the sensor chip surface and the interaction between the analyte and the ligand was detected as a measure of the change in mass concentration upon the surface, expressed in resonance units (RUs) and compared to the baseline.
Full kinetic analysis of the binding interaction between 9 when binding to the Armadillo domain is shown in Figure 4, with the calculated binding parameters listed in the bottom table. As evidenced by the sensorgram obtained at different analyte concentrations, the dissociation rate constant of 9 is very slow, thereby resulting in a low nanomolar equilibrium affinity constant (KD) of the binding calculated as the ratio of kd/ka (Figure 4).
Figure 4 SPR kinetic analysis. […]
The analyte 9 was dialyzed in the running buffer (1% final DMSO concentration) and injected at different concentrations for 120 s onto the sensor chip at a constant flow rate of 50 μL/min. […] The equilibrium dissociation constant (KD) was determined by the ratio Koff/Kon. […]

As for `O=S(=O)(Nc1ccc(-c2ccccn2)cc1)c1ccc(Br)cc1` [Compound 9, 4-Bromo-N-(4-(pyridin-2-yl)phenyl)benzenesulfonamide], the kon stood at 293000 M⁻¹ s⁻¹.
